Results taken from US7919508B2, “3-piperidinylisochroman-5-ols as dopamine agonists” (Aventis Pharmaceuticals Inc., priority 2004, dated 2011).
Structures can show the parent of a compound that is named as a salt.

What was measured:
[1] = biological target: T1, human dopamine D1 receptor (Homo sapiens, UniProt P21728); test: [3H]-SCH-23390 binding to cloned human dopamine D1 receptors (CHO cell membranes); settings: competitive binding, [3H]-SCH-23390, cloned human D1 in CHO membranes; read-out: D1 affinity Ki
T1 construct: A 1.4 Kb Hind III to Xho I fragment was subcloned into the vector pMMLV; expressed in transfected cells; host or cells: CHO cells, clone CHO-D1M#9 (plasmid pHD1MMLV), membranes
Description: [^3H]-SCH-23390 Binding to Cloned Human Dopamine D1 Receptors
Determination of relative binding affinity of potential neuropsychiatric and other agents for the human dopamine D1 receptor.
The human D, cDNA was obtained from the laboratory of Dr. Marc Caron in the vector pCMV5. A 1.4 Kb Hind III to Xho I fragment was subcloned into the vector pMMLV. The plasmid pHD1MMLV was then sequenced completely. Transient transfections in COS-7 cells were performed and D1 specific binding was obtained. The construct pHD1MMLV was then transfected stably into CHO cells and 72 G418-resistant clones were isolated. High expressors were identified by mRNA dot blot analysis. Six high expressors were further characterized by binding and then clone CHO-D1M#9 was chosen for detailed pharmacological characterization. This clone was then grown in suspension culture for the purpose of obtaining enough protein to accommodate several months of screening.
B. Cell Culture Conditions
• 1. […] Cells are transferred to suspension culture when at least […] are available (this allows for 300,000 cells/ml in a 50 ml spinner flask; this is the ideal suspension density). Cells are removed from flasks with trypsin, spun down at 1000×G and resuspended the pellet in fresh medium: • 50% CHO-SFM-II+50% Ham's F12 w/10% FBS (final FBS conc. 5%)+400 μg/ml G418+1% P/S. • 3. After the transfer to suspension culture, growth is monitored and cell viability is assessed using trypan blue exclusion. Total and viable cell count on 5 sectors of the hemocytometer are recorded. When the viable cell density reaches 600,000 cell/ml, the volume is doubled. • 4. After 1 week of growth in the 50/50 medium, the cells are spun down and transferred to a new spinner flask and replaced with 75% CHO-SFM II/25% Ham's F12+10% FBS plus the pen-strep and G418. Thereafter every 3 days, the medium is replaced with new medium containing a decreasing amount of FBS as follows:
• 5. The final maintenance culturing medium is made up as follows: • A stock mixture of 10 ml of pen-strep, 0.5 ml of […] (active; final concentration: 200 μg/ml) G418 and 1 ml of FBS are mixed and filtered and refrigerated. A volume (11.5 ml) of this mixture is added to a freshly opened 1 L bottle of CHO-SFM II. C. Membrane Preparation
Cells are harvested into 250 ml centrifuge tubes and spun down at 1200×G. The medium is removed and 100 ml PBS (phosphate-buffered saline) is added to each centrifuge tube; cells are resuspended and spun down again. The PBS is removed and the final pellet is homogenized with a polytron on ice at a medium setting.
The membrane suspension is diluted in water and samples (10, 50 and 100 μl; q.s. to 100 μl with water) are diluted with 100 μl of 1% SDS. The sample is vortexed and allowed to stand for 5 min. Two aliquots each of the solubilized protein sample are placed in clean 13×100 test tubes for the assay. Instructions are followed as outlined in the BioRad DC protein determination kit (Catalog # 500-0112). OD readings that fall between 0.1-0.5 (mid-range of standard curve) should typically be used for calculations. Protein concentrations are calculated from a standard curve using bovine serum albumin as standard by linear regression and interpolation.
Following cell harvesting and protein determination, the homogenate is diluted with 10% DMSO to the correct volume based on Bmax and relative size of individual experiments to be conducted. The concentrated protein is stored in cryogenic vials in aliquots of 1-1.5 ml. Samples may be stored in −80° C. freezer or in liquid nitrogen.

[2] = biological target: human dopamine D2Long (D2L) receptors (Homo sapiens, UniProt P14416)
human dopamine D2Long (D2L) receptors, sequence (P14416 whole entry): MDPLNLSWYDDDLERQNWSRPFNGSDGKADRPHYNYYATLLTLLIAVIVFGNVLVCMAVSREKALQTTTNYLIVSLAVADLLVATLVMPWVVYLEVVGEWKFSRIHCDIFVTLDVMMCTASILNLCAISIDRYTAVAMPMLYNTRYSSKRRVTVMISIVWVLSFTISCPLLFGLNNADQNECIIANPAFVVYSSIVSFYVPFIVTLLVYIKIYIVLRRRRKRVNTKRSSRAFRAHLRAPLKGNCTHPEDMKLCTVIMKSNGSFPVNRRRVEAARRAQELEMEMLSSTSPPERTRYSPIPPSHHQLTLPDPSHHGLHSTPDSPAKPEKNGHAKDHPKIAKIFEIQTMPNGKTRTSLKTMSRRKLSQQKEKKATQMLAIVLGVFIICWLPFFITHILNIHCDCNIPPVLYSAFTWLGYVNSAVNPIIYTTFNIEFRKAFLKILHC

T1 sequence (P21728 whole entry, the tested form may be a part): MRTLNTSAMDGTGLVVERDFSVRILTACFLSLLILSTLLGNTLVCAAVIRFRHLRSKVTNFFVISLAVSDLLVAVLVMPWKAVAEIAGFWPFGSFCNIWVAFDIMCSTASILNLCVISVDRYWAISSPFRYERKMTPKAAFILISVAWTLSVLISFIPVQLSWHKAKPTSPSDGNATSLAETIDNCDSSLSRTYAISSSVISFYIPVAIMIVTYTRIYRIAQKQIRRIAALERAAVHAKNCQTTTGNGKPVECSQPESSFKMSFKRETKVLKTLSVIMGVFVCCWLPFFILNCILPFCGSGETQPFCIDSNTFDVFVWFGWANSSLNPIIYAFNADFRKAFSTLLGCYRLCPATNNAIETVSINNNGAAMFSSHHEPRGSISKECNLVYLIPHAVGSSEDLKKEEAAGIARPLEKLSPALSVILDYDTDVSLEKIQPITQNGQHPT

Ki [1]	Ki [2]	Structure (SMILES)
15.6 nM	≥ 10000 nM	Cc1ccc2c(c1O)C[C@@H](C1CCN(Cc3ccc(C(F)(F)F)c(F)c3)CC1)O[C@H]2CN [Example 82, (1R,3S)-1-Aminomethyl-3-[1-(3-fluoro-4-trifluoromethyl-benzyl)-piperidin-4-yl]-6-methyl-isochroman-5-ol dihydrochloride]
217 nM	≥ 100000 nM	Cc1ccc2c(c1O)C[C@@H](C1CCN(S(=O)(=O)C(C)C)CC1)O[C@H]2CN [Example 155, (1R,3S)-1-Aminomethyl-6-methyl-3-[1-(Propane-2-sulfonyl)-piperidin-4-yl]-isochroman-5-ol hydrochloride]
642 nM	86 nM	C=CCN(CC=C)C[C@@H]1O[C@H](C2CCN(CC(=O)c3ccccc3)CC2)Cc2c1ccc(C)c2O [Example 180, 2-[4-((1R,3S)-1-Diallylaminomethyl-5-hydroxy-6-methyl-isochroman-3-yl)-piperidin-1-yl]-1-phenyl-ethanone]
265 nM	552 nM	CNC[C@@H]1O[C@H](C2CCN(CC3CCCCC3)CC2)Cc2c1ccc(C)c2O [Example 96, (1R,3S)-3-(1-Cyclohexylmethyl-piperidin-4-yl)-6-methyl-1-methylaminomethyl-isochroman-5-ol dihydrochloride]
382 nM	≥ 100000 nM	Cc1ccc2c(c1O)C[C@@H](C1CCN(S(=O)(=O)C[C@@]34CC[C@@H](CC3=O)C4(C)C)CC1)O[C@H]2CN [Example 162, 1(R)-[4-((1R,3S)-1-Aminomethyl-5-hydroxy-6-methyl-isochroman-3-yl)-piperidine-1-sulfonylmethyl]-7,7-dimethyl-bicyclo[2.2.1]heptan-2-one hydrochloride]
241 nM	≥ 100000 nM	Cc1ccc2c(c1O)C[C@@H](C1CCN(C(=O)N(C(C)C)C(C)C)CC1)O[C@H]2CN [Example 133, 4-((1R,3S)-1-Aminomethyl-5-hydroxy-6-methyl-isochroman-3-yl)-piperidine-1-carboxylic acid diisopropylamide hydrochloride]
207 nM	246 nM	Cc1ccc2c(c1O)C[C@@H](C1CCN(S(=O)(=O)N3CCC(Cc4ccccc4)CC3)CC1)O[C@H]2CN [Example 166, (1R,3S)-1-Aminomethyl-3-[1-(4-benzyl-piperidine-1-sulfonyl)-piperidin-4-yl]-6-methyl-isochroman-5-ol hydrochloride]
139 nM	≥ 100000 nM	CCCCCCCCS(=O)(=O)N1CCC([C@@H]2Cc3c(ccc(C)c3O)[C@H](CN)O2)CC1 [Example 156, (1R,3S)-1-Aminomethyl-6-methyl-3-[1-(octane-1-sulfonyl)-piperidin-4-yl]-isochroman-5-ol hydrochloride]

More lines, now with the values behind:

Structure (SMILES)	Ki [1]	Ki [2]
Cc1ccc2c(c1O)C[C@@H](C1CCN(S(=O)(=O)c3ccc(Cl)cc3)CC1)O[C@H]2CN [Example 148, (1R,3S)-1-Aminomethyl-3-[1-(4-chloro-benzenesulfonyl)-piperidin-4-yl]-6-methyl-isochroman-5-ol hydrochloride]	183 nM	≥ 100000 nM
Cc1ccc2c(c1O)C[C@@H](C1CCN(Cc3cc(C(F)(F)F)ccc3F)CC1)O[C@H]2CN [Example 81, (1R,3S)-1-Aminomethyl-3-[1-(2-fluoro-5-trifluoromethyl-benzyl)-piperidin-4-yl]-6-methyl-isochroman-5-ol dihydrochloride]	28.7 nM	343 nM
Cc1ccc2c(c1O)C[C@@H](C1CCN(Cc3ccc(F)c(C(F)(F)F)c3)CC1)O[C@H]2CN [Example 83, (1R,3S)-1-Aminomethyl-3-[1-(4-fluoro-3-trifluoromethyl-benzyl)-piperidin-4-yl]-6-methyl-isochroman-5-ol dihydrochloride]	15.9 nM	611 nM
CCCN(C)C[C@@H]1O[C@H](C2CCN(Cc3ccccc3)CC2)Cc2c1ccc(C)c2O [Example 175, (1R,3S)-3-(1-Benzyl-piperidin-4-yl)-6-methyl-1-[(methyl-propyl-amino)-methyl]-isochroman-5-ol]	3070 nM	≥ 10000 nM
Cc1ccc2c(c1O)C[C@@H](C1CCN(C(=O)N3CCCCC3)CC1)O[C@H]2CN [Example 138, [4-((1R,3S)-1-Aminomethyl-5-hydroxy-6-methyl-isochroman-3-yl)-piperidin-1-yl]-piperidin-1-yl-methanone hydrochloride]	198 nM	≥ 100000 nM
Cc1ccc2c(c1O)C[C@@H](C1CCN(Cc3ccccn3)CC1)O[C@H]2CN [Example 52, (1R,3S)-1-Aminomethyl-6-methyl-3-(1-pyridin-2-ylmethyl-piperidin-4-yl)-isochroman-5-ol dihydrochloride]	113 nM	≥ 10000 nM
CCCNC[C@@H]1O[C@H](C2CCN(Cc3ccccc3)CC2)Cc2c1ccc(C)c2O [Example 174, (1R,3S)-3-(1-Benzyl-piperidin-4-yl)-6-methyl-1-propylaminomethyl-isochroman-5-ol]	510 nM	248 nM
Cc1ccc2c(c1O)C[C@@H](C1CCN(Cc3ccccc3)CC1)O[C@H]2CNC1CCC1 [Example 177, (1R,3S)-3-(1-Benzyl-piperidin-4-yl)-1-cyclobutylaminomethyl-6-methyl-isochroman-5-ol]	≥ 10000 nM	305 nM
